The text below walks through data of US7745483B2, “2-Halofuryl-thienyl-3-carboxamides” (Bayer CropScience AG, priority 2004, dated 2010).

One experiment has as its system Sphaerotheca fuliginea. Nature of the experiment: Sphaerotheca test (cucumber)/protective. It counts as in vivo. To be noted: Podosphaera fuliginea, 168 h, protective, application rate 100 g/ha, evaluation 7 days after inoculation, read-out: Efficacy in %. As for the experimental part:
(§1) [table] To produce a suitable preparation of active compound, one part by weight of active compound is mixed with the stated amounts of solvent and emulsifier, and the concentrate is diluted with water to the desired concentration. To test for protective activity, young plants are sprayed with the preparation of active compound at the stated application rate. After the spray coating has dried on, the plants are inoculated with an aqueous spore suspension of Sphaerotheca fuliginea. The plants are then placed in a greenhouse at about 23° C. and a relative atmospheric humidity of about 70%. Evaluation is carried out 7 days after the inoculation. 0% means an efficacy which corresponds to that of the control, whereas an efficacy of 100% means that no infection is observed.
For the compound `CC(C)(C)CCc1cc(F)ccc1NC(=O)c1ccsc1I` [drawing 163], the pest or weed control at 100 g/ha came to 100%.

For `O=C(Nc1ccccc1-c1ccc(Br)cc1)c1ccsc1I` [drawing 169], the pest or weed control at 100 g/ha was 100%. With `O=C(Nc1ccccc1-c1ccc(Cl)c(Cl)c1)c1ccoc1I` [drawing 166], the pest or weed control at 100 g/ha worked out at 100%. In the case of `C[Si](C)(C)CCc1sccc1NC(=O)c1ccsc1I` [drawing 184], the pest or weed control at 100 g/ha came out at 100%. `O=C(Nc1ccccc1-c1ccc(Br)c(Cl)c1)c1ccsc1I` [drawing 159]: the pest or weed control at 100 g/ha was 100%. As for `CO/N=C/c1ccc(-c2ccccc2NC(=O)c2ccsc2I)cc1F` [drawing 176], the pest or weed control at 100 g/ha was determined as 98%. On to `O=C(Nc1ccccc1-c1ccc(F)c(Cl)c1)c1ccsc1I` [drawing 183], for which the pest or weed control at 100 g/ha worked out at 100%. Same read-out and setting: the same measure for `O=C(Nc1ccccc1-c1ccc(Br)cc1)c1ccoc1I` [drawing 165]: 100%; for `O=C(Nc1ccccc1-c1ccc(C(F)(F)F)cc1Cl)c1ccsc1I` [drawing 155]: 100%; for `O=C(Nc1ccccc1-c1ccc(Cl)c(F)c1)c1ccoc1I` [drawing 167]: 98%. Turning to `O=C(Nc1ccccc1-c1ccc(Cl)cc1)c1ccoc1I` [drawing 164], the pest or weed control at 100 g/ha was 100%. Consider `O=C(Nc1ccccc1-c1ccc(Cl)c(Cl)c1)c1ccsc1Br` [drawing 181], for which the pest or weed control at 100 g/ha is 100%. On to `O=C(Nc1ccccc1-c1ccc(C(F)(F)F)cc1)c1ccsc1I` [drawing 172], for which the pest or weed control at 100 g/ha stood at 93%. As for `CC(CC(C)(C)C)c1ccccc1NC(=O)c1ccsc1I` (centres unmarked) [drawing 154], the pest or weed control at 100 g/ha came to 100%. On the same count and under the same terms, under `CC(CC(C)(C)C)c1ccccc1NC(=O)c1ccsc1Br` (centres unmarked) [drawing 179] stands 97%.

For `CC(C)CC(C)c1sccc1NC(=O)c1ccsc1I` (centres unmarked) [drawing 177], the pest or weed control at 100 g/ha came to 92%. With `CC(C)CC(C)c1ccccc1NC(=O)c1ccsc1I` (centres unmarked) [drawing 152], the pest or weed control at 100 g/ha came out at 98%. For the compound `O=C(Nc1ccccc1-c1ccc(Cl)c(F)c1)c1ccsc1I` [drawing 170], the pest or weed control at 100 g/ha was 98%. As to `O=C(Nc1ccccc1-c1cccc(Cl)c1F)c1ccsc1I` [drawing 161], the pest or weed control at 100 g/ha amounted to 100%. For the compound `O=C(Nc1ccccc1-c1ccc(Br)c(F)c1)c1ccsc1I` [drawing 158], the pest or weed control at 100 g/ha stood at 100%. `O=C(Nc1ccccc1-c1ccc(Cl)cc1)c1ccsc1Br` [drawing 180]: the pest or weed control at 100 g/ha stood at 100%. Regarding `O=C(Nc1ccncc1-c1ccc(Cl)c(Cl)c1)c1ccsc1I` [drawing 156], the pest or weed control at 100 g/ha turned out to be 100%. For the compound `O=C(Nc1ccccc1-c1ccc(Cl)cc1)c1ccsc1I` [drawing 168], the pest or weed control at 100 g/ha is 95%. `CC(C)CC(C)c1cc(F)ccc1NC(=O)c1ccsc1I` (centres unmarked) [drawing 175]: the pest or weed control at 100 g/ha was 97%. For `O=C(Nc1ccccc1-c1cccc(Cl)c1Cl)c1ccsc1I` [drawing 160], the pest or weed control at 100 g/ha worked out at 100%.

The next experiment deals with Venturia inaequalis. Nature of the experiment: Venturia test (apple)/protective. It counts as in vivo. To be noted: 240 h, protective, application rate 100 g/ha, evaluation 10 days after inoculation, read-out: Efficacy in %. As for the experimental part:
as §1, with “amount” for “amounts”, “conidia” for “spore”, “the apple scab pathogen Venturia inaequalis and then remain in an incubation cabin at about 20° C. and 100% relative atmospheric humidity for 1 day.” for “Sphaerotheca fuliginea.”, “21°” for “23°”, “90%.” for “70%.”, “10” for “7”
`CC(CC(C)(C)C)c1ccccc1NC(=O)c1ccoc1I` (centres unmarked) [drawing 186]: the pest or weed control at 100 g/ha worked out at 94%. Regarding `Cc1ccc(-c2ccccc2NC(=O)c2ccsc2I)cc1F` [drawing 210], the pest or weed control at 100 g/ha came to 100%. Regarding `O=C(Nc1ccccc1-c1ccc(Cl)c(Cl)c1)c1ccsc1Br` [drawing 218], the pest or weed control at 100 g/ha was 100%. The same measure, in the same setting: the same measure for `O=C(Nc1ccc(F)cc1-c1cccc(Cl)c1F)c1ccsc1I` [drawing 196]: 100%; for `CC1CC(C)(C)c2cccc(NC(=O)c3ccsc3I)c21` (centres unmarked) [drawing 211]: 100%. On to `CC(C)(C)CCc1cc(F)ccc1NC(=O)c1ccsc1I` [drawing 197], for which the pest or weed control at 100 g/ha turned out to be 100%.

Turning to `CC(C[Si](C)(C)C)c1ccccc1NC(=O)c1ccoc1I` (centres unmarked) [drawing 206], the pest or weed control at 100 g/ha was 99%.

`CC(C[Si](C)(C)C)c1ccccc1NC(=O)c1ccsc1I` (centres unmarked) [drawing 207]: the pest or weed control at 100 g/ha turned out to be 100%. The same measure, in the same setting: the same measure for `CC(C)CC(C)c1ccccc1NC(=O)c1ccsc1I` (centres unmarked) [drawing 185]: 100%; for `CC(C)CC(C)c1sccc1NC(=O)c1ccsc1I` (centres unmarked) [drawing 214]: 100%. As for `O=C(Nc1ccccc1-c1ccc(Br)c(F)c1)c1ccsc1I` [drawing 192], the pest or weed control at 100 g/ha was found to be 100%. In the case of `CC(C)CC(C)c1ccccc1NC(=O)c1ccsc1Br` (centres unmarked) [drawing 215], the pest or weed control at 100 g/ha came out at 100%.

For `O=C(Nc1ccccc1-c1ccc(Br)cc1)c1ccsc1I` [drawing 203], the pest or weed control at 100 g/ha turned out to be 91%. In the case of `O=C(Nc1ccccc1-c1ccc(Br)cc1)c1ccoc1I` [drawing 199], the pest or weed control at 100 g/ha came out at 100%.

`O=C(Nc1ccccc1-c1ccc(Cl)c(F)c1)c1ccoc1I` [drawing 201]: the pest or weed control at 100 g/ha turned out to be 100%. In the case of `CO/N=C/c1ccc(-c2ccccc2NC(=O)c2ccsc2I)cc1F` [drawing 213], the pest or weed control at 100 g/ha worked out at 100%. With `O=C(Nc1ccccc1-c1ccc(Cl)c(F)c1)c1ccsc1I` [drawing 205], the pest or weed control at 100 g/ha amounted to 100%. As to `O=C(Nc1ccccc1-c1ccc(Cl)cc1)c1ccoc1I` [drawing 198], the pest or weed control at 100 g/ha is 100%. Regarding `O=C(Nc1ccccc1-c1ccc(Cl)cc1)c1ccsc1Br` [drawing 217], the pest or weed control at 100 g/ha turned out to be 100%. `O=C(Nc1ccccc1-c1ccc(Cl)cc1)c1ccsc1I` [drawing 202]: the pest or weed control at 100 g/ha was 100%.

Take `CC(C)CC(C)c1cc(F)ccc1NC(=O)c1ccsc1I` (centres unmarked) [drawing 212]: the pest or weed control at 100 g/ha came to 100%. As to `O=C(Nc1ccccc1-c1ccc(F)c(Cl)c1)c1ccsc1I` [drawing 220], the pest or weed control at 100 g/ha amounted to 100%.

For `O=C(Nc1ccccc1-c1ccc(Br)c(Cl)c1)c1ccsc1I` [drawing 193], the pest or weed control at 100 g/ha was determined as 100%.

In the case of `C[Si](C)(C)CCc1sccc1NC(=O)c1ccsc1I` [drawing 221], the pest or weed control at 100 g/ha turned out to be 100%. The same measure, in the same setting: under `O=C(Nc1ccc(F)cc1-c1ccc(Cl)c(Cl)c1)c1ccsc1I` [drawing 209] stands 100%. Same read-out and setting: under `C[Si](C)(C)CCc1ccccc1NC(=O)c1ccsc1I` [drawing 188] stands 100%. Take `O=C(Nc1ccccc1-c1ccc(C(F)(F)F)cc1)c1ccsc1I` [drawing 208]: the pest or weed control at 100 g/ha amounted to 99%. `O=C(Nc1ccncc1-c1ccc(Cl)c(Cl)c1)c1ccsc1I` [drawing 190]: the pest or weed control at 100 g/ha worked out at 98%. Consider `O=C(Nc1ccccc1-c1cccc(Cl)c1F)c1ccsc1I` [drawing 195], for which the pest or weed control at 100 g/ha is 89%.

In the case of `O=C(Nc1ccccc1-c1ccc(Cl)c(F)c1)c1ccsc1Br` [drawing 219], the pest or weed control at 100 g/ha stood at 100%.

For the compound `O=C(Nc1ccccc1-c1ccc(Cl)c(Cl)c1)c1ccsc1I` [drawing 204], the pest or weed control at 100 g/ha was found to be 100%. For `CC(CC(C)(C)C)c1ccccc1NC(=O)c1ccsc1I` (centres unmarked) [drawing 187], the pest or weed control at 100 g/ha worked out at 100%. Same read-out and setting: the same measure for `O=C(Nc1ccccc1-c1ccc(C(F)(F)F)cc1Cl)c1ccsc1I` [drawing 189]: 97%; for `O=C(Nc1ccccc1-c1ccc(Cl)c(Cl)c1)c1ccoc1I` [drawing 200]: 99%.

In the case of `O=C(Nc1ccccc1-c1cccc(Cl)c1Cl)c1ccsc1I` [drawing 194], the pest or weed control at 100 g/ha stood at 98%.

Turning to `O=C(Nc1ccccc1-c1ccc(Br)cc1Cl)c1ccsc1I` [drawing 191], the pest or weed control at 100 g/ha is 100%. For `CC(CC(C)(C)C)c1ccccc1NC(=O)c1ccsc1Br` (centres unmarked) [drawing 216], the pest or weed control at 100 g/ha was found to be 98%.

The next experiment concerns Botrytis cinerea. Nature of the experiment: Botrytis test (bean)/protective. It is filed as in vivo. Particulars: 48 h, protective, application rate 500 g/ha, evaluation 2 days after inoculation, read-out: Efficacy in %. As for the experimental part: [table] To produce a suitable preparation of active compound, 1 part by weight of active compound was mixed with the stated amounts of solvent and emulsifier, and the concentrate was diluted with water to the desired concentration. To test for protective activity, young plants are sprayed with the preparation of active compound at the stated application rate. After the spray coating has dried on, 2 small pieces of agar colonized by Botrytis cinerea are placed onto each leaf. The inoculated plants are placed in a dark chamber at about 20° C. and 100% relative atmospheric humidity. The size of the infected areas on the leaves is evaluated 2 days after the inoculation. 0% means an efficacy which corresponds to that of the control, whereas an efficacy of 100% means that no infection is observed.
`O=C(Nc1ccccc1-c1ccc(C(F)(F)F)cc1Cl)c1ccsc1I` [drawing 227]: the pest or weed control at 500 g/ha stood at 100%. Still for that read-out and setting: the same measure for `O=C(Nc1ccccc1-c1ccc(Cl)c(F)c1)c1ccsc1Br` [drawing 257]: 100%. The same measure, in the same setting: under `O=C(Nc1ccccc1-c1cccc(Cl)c1Cl)c1ccsc1I` [drawing 232] stands 100%; under `O=C(Nc1ccccc1-c1ccc(C(F)(F)F)cc1)c1ccsc1I` [drawing 246], 100%; under `CC(C[Si](C)(C)C)c1ccccc1NC(=O)c1ccsc1I` (centres unmarked) [drawing 245], 100%.

As for `O=C(Nc1ccccc1-c1ccc(Cl)c(Cl)c1)c1ccoc1I` [drawing 238], the pest or weed control at 500 g/ha is 100%.
